Measured values from US6737383B1, “Herbicidal oxadiazolidines” (priority 1999, dated 2004).

Key:
bedstraw = test: Test B pre/postemergence bedstraw; assay type: in vivo, Galium aparine; conditions: Preemergence
In short: (§1)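 Herbicidal effect was estimated by eye on a ten-point control scale after plants spent twelve to sixteen days in a greenhouse following soil or foliar treatment. Foliar sprays targeted plants at one to four leaves; all doses were formulated in a non-phytotoxic solvent with surfactant.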

blackgrass = test: Test B pre/postemergence blackgrass; assay type: in vivo, Alopecurus myosuroides
In short: as §1

surinam grass = test: Test B pre/postemergence surinam grass; assay type: in vivo, Brachiaria decumbens
In short: as §1

cocklebur = test: Test B pre/postemergence cocklebur; assay type: in vivo, Xanthium strumarium
In short: as §1

corn = test: Test B pre/postemergence corn; assay type: in vivo, Zea mays
In short: as §1

crabgrass = test: Test B pre/postemergence crabgrass; assay type: in vivo, Digitaria sanguinalis
In short: as §1

giant foxtail = test: Test B pre/postemergence giant foxtail; assay type: in vivo, Setaria faberii
In short: as §1

morningglory = test: Test B pre/postemergence morningglory; assay type: in vivo, Ipomoea hederacea
In short: as §1

pigweed = test: Test B pre/postemergence pigweed; assay type: in vivo, Amaranthus retroflexus
In short: as §1

rape = test: Test B pre/postemergence rape; assay type: in vivo, Brassica napus
In short: as §1

soybean = test: Test B pre/postemergence soybean; assay type: in vivo, Glycine max
In short: as §1

sugar beet = test: Test B pre/postemergence sugar beet; assay type: in vivo, Beta vulgaris
In short: as §1

velvetleaf = test: Test B pre/postemergence velvetleaf; assay type: in vivo, Abutilon theophrasti
In short: as §1

wheat = test: Test B pre/postemergence wheat; assay type: in vivo, Triticum aestivum
In short: as §1

wild oat = test: Test B pre/postemergence wild oat; assay type: in vivo, Avena fatua
In short: as §1

purple nutsedge = test: Test B pre/postemergence purple nutsedge; assay type: in vivo, Cyperus rotundus
In short: as §1

[1] = Postemergence, Rate 62 g/ha, scale of 0 to 10, 0 is no effect, 10 is complete control
[2] = Postemergence, Rate 125 g/ha, scale 0 to 10, 0 is no effect, 10 is complete control
[3] = Postemergence, Rate 500 g/ha, scale 0 to 10, 0 is no effect, 10 is complete control
[4] = Preemergence, Rate 125 g/ha, scale 0 to 10, 0 is no effect, 10 is complete control
[5] = Preemergence, Rate 500 g/ha, scale of 0 to 10 where 0 is no effect and 10 is complete control
[6] = Rate 250 g/ha, Postemergence, scale of 0 to 10 where 0 is no effect and 10 is complete control
[7] = Preemergence, Rate 62 g/ha, scale 0 to 10 (0 no effect, 10 complete control)

For `COCCOCn1c(=O)on(C(=O)N(c2ccc(Cl)cc2)C(C)C)c1=O` [Compound 535], the “Bedstraw plant response rating” value (bedstraw; Rate 62 g/ha, scale 0 to 10 (0 no effect, 10 complete control)) was 0, the “Bedstraw plant response rating” value (bedstraw; Rate 125 g/ha, scale 0 to 10, 0 is no effect, 10 is complete control) was 0 and the “Bedstraw plant response rating” value (bedstraw; Rate 500 g/ha, scale of 0 to 10 where 0 is no effect and 10 is complete control) was 0. The “Blackgrass plant response rating” value (blackgrass; [1]) was 0, the “Blackgrass plant response rating” value (blackgrass; [2]) was 4 and the “Plant response rating, Blackgrass” value (blackgrass; [3]) was 8. The “Blackgrass plant response rating” value (blackgrass; [4]) was 0, the “Blackgrass plant response rating (0 to 10 scale)” value (blackgrass; Preemergence, Rate 250 g/ha) was 0 and the “Blackgrass plant response rating” value (blackgrass; [5]) was 0. For the same compound, the “Plant response rating, Blackgrass” value (blackgrass; [6]) was 7, the “B. signalgrass plant response rating” value (surinam grass; [1]) was 0 and the “B. signalgrass plant response rating” value (surinam grass; [2]) was 0. The “Plant response rating, B. signalgrass” value (surinam grass; [3]) was 3, the “B. signalgrass plant response rating” value (surinam grass; [4]) was 0 and the “B. signalgrass plant response rating (0 to 10 scale, 0 is no effect, 10 is complete control)” value (surinam grass; Preemergence, Rate 250 g/ha) was 0. For the same compound, the “B. signalgrass plant response rating” value (surinam grass; [5]) was 0, the “Plant response rating, B. signalgrass” value (surinam grass; [6]) was 0 and the “Cocklebur plant response rating” value (cocklebur; [1]) was 0. The “Cocklebur plant response rating” value (cocklebur; [2]) was 0, the “Plant response rating, Cocklebur” value (cocklebur; [3]) was 0 and the “Cocklebur plant response rating” value (cocklebur; [7]) was 0. The “Cocklebur plant response rating” value (cocklebur; [4]) was 0, the “Cocklebur plant response rating (0 to 10 scale)” value (cocklebur; Preemergence, Rate 250 g/ha) was 0 and the “Cocklebur plant response rating” value (cocklebur; [5]) was 0. For the same compound, the “Plant response rating, Cocklebur” value (cocklebur; [6]) was 0, the “Corn plant response rating” value (corn; [1]) was 0 and the “Corn plant response rating” value (corn; [2]) was 0. The “Plant response rating, Corn” value (corn; [3]) was 0, the “Corn plant response rating” value (corn; [7]) was 0 and the “Corn plant response rating” value (corn; [4]) was 0. The “Corn plant response rating (0 to 10 scale)” value (corn; Preemergence, Rate 250 g/ha) was 0, the “Corn plant response rating” value (corn; [5]) was 2 and the “Plant response rating, Corn” value (corn; [6]) was 0. For the same compound, the “Crabgrass plant response rating” value (crabgrass; [1]) was 5, the “Plant response rating, Crabgrass” value (crabgrass; [3]) was 6 and the “Crabgrass plant response rating” value (crabgrass; [7]) was 10. For the same compound, the “Crabgrass plant response rating” value (crabgrass; [4]) was 10, the “Crabgrass plant response rating (0 to 10 scale)” value (crabgrass; Preemergence, Rate 250 g/ha) was 10 and the “Crabgrass plant response rating” value (crabgrass; [5]) was 10. The “Plant response rating, Crabgrass” value (crabgrass; [6]) was 5, the “Giant foxtail plant response rating” value (giant foxtail; [1]) was 5 and the “Plant response rating, Giant foxtail” value (giant foxtail; [3]) was 5. For the same compound, the “Giant foxtail plant response rating” value (giant foxtail; [7]) was 10, the “Giant foxtail plant response rating” value (giant foxtail; [4]) was 10 and the “Giant foxtail plant response rating (0 to 10 scale)” value (giant foxtail; Preemergence, Rate 250 g/ha) was 10. The “Giant foxtail plant response rating” value (giant foxtail; [5]) was 10, the “Plant response rating, Giant foxtail” value (giant foxtail; [6]) was 5 and the “Morningglory plant response rating” value (morningglory; [1]) was 4. For the same compound, the “Morningglory plant response rating” value (morningglory; [2]) was 2, the “Plant response rating, Morningglory” value (morningglory; [3]) was 3 and the “Morningglory plant response rating” value (morningglory; [7]) was 0. The “Morningglory plant response rating” value (morningglory; [4]) was 0, the “Morningglory plant response rating (0 to 10 scale)” value (morningglory; Preemergence, Rate 250 g/ha) was 0 and the “Morningglory plant response rating” value (morningglory; [5]) was 2. For the same compound, the “Plant response rating, Morningglory” value (morningglory; [6]) was 2, the “Redroot pigweed plant response rating” value (pigweed; [1]) was 0 and the “Redroot pigweed plant response rating” value (pigweed; [2]) was 0. For the same compound, the “Plant response rating, Redroot pigweed” value (pigweed; [3]) was 0, the “Redroot pigweed plant response rating” value (pigweed; [7]) was 2 and the “Redroot pigweed plant response rating” value (pigweed; [4]) was 2. The “Redroot pigweed plant response rating (0 to 10 scale)” value (pigweed; Preemergence, Rate 250 g/ha) was 4, the “Redroot pigweed plant response rating” value (pigweed; [5]) was 4 and the “Plant response rating, Redroot pigweed” value (pigweed; [6]) was 0. The “Rape plant response rating” value (rape; [1]) was 0, the “Rape plant response rating” value (rape; [2]) was 0 and the “Plant response rating, Rape” value (rape; [3]) was 0. For the same compound, the “Rape plant response rating” value (rape; [7]) was 2, the “Rape plant response rating” value (rape; [4]) was 2 and the “Rape plant response rating (0 to 10 scale)” value (rape; Preemergence, Rate 250 g/ha) was 2. The “Rape plant response rating” value (rape; [5]) was 3, the “Plant response rating, Rape” value (rape; [6]) was 0 and the “Soybean plant response rating” value (soybean; [1]) was 3. For the same compound, the “Soybean plant response rating” value (soybean; [2]) was 6, the “Plant response rating, Soybean” value (soybean; [3]) was 8 and the “Soybean plant response rating” value (soybean; [7]) was 0. The “Soybean plant response rating” value (soybean; [4]) was 0, the “Soybean plant response rating (0 to 10 scale)” value (soybean; Preemergence, Rate 250 g/ha) was 0 and the “Soybean plant response rating” value (soybean; [5]) was 0. The “Plant response rating, Soybean” value (soybean; [6]) was 6, the “Sugarbeets plant response rating” value (sugar beet; [1]) was 0 and the “Sugarbeets plant response rating” value (sugar beet; [2]) was 0. For the same compound, the “Plant response rating, Sugarbeets” value (sugar beet; [3]) was 0, the “Sugarbeets plant response rating” value (sugar beet; [7]) was 4 and the “Sugarbeets plant response rating” value (sugar beet; [4]) was 4. For the same compound, the “Sugarbeets plant response rating (0 to 10 scale)” value (sugar beet; Preemergence, Rate 250 g/ha) was 5, the “Plant response rating, Sugarbeets” value (sugar beet; [6]) was 0 and the “Velvetleaf plant response rating” value (velvetleaf; [1]) was 0. For the same compound, the “Velvetleaf plant response rating” value (velvetleaf; [2]) was 0, the “Plant response rating, Velvetleaf” value (velvetleaf; [3]) was 2 and the “Velvetleaf plant response rating” value (velvetleaf; [7]) was 0. For the same compound, the “Velvetleaf plant response rating” value (velvetleaf; [4]) was 0, the “Velvetleaf plant response rating (0 to 10 scale)” value (velvetleaf; Preemergence, Rate 250 g/ha) was 2 and the “Plant response rating, Velvetleaf” value (velvetleaf; [6]) was 0. For the same compound, the “Wheat plant response rating” value (wheat; [1]) was 0, the “Wheat plant response rating” value (wheat; [2]) was 0 and the “Plant response rating, Wheat” value (wheat; [3]) was 2. The “Wheat plant response rating” value (wheat; [7]) was 0, the “Wheat plant response rating” value (wheat; [4]) was 0 and the “Wheat plant response rating (0 to 10 scale)” value (wheat; Preemergence, Rate 250 g/ha) was 0. The “Wheat plant response rating” value (wheat; [5]) was 0, the “Plant response rating, Wheat” value (wheat; [6]) was 0 and the “Wild oats plant response rating” value (wild oat; [1]) was 0. The “Wild oats plant response rating” value (wild oat; [2]) was 0, the “Plant response rating, Wild oats” value (wild oat; [3]) was 2 and the “Wild oats plant response rating” value (wild oat; [7]) was 0. The “Wild oats plant response rating” value (wild oat; [4]) was 0, the “Wild oats plant response rating (0 to 10 scale)” value (wild oat; Preemergence, Rate 250 g/ha) was 0 and the “Wild oats plant response rating” value (wild oat; [5]) was 0. For the same compound, the “Plant response rating, Wild oats” value (wild oat; [6]) was 0, the “Nutsedge plant response rating” value (purple nutsedge; [1]) was 0 and the “Nutsedge plant response rating” value (purple nutsedge; [2]) was 0. For the same compound, the “Plant response rating, Nutsedge” value (purple nutsedge; [3]) was 0, the “Nutsedge plant response rating” value (purple nutsedge; [7]) was 0 and the “Nutsedge plant response rating” value (purple nutsedge; [4]) was 0. For the same compound, the “Nutsedge plant response rating (0 to 10 scale)” value (purple nutsedge; Preemergence, Rate 250 g/ha) was 0, the “Nutsedge plant response rating” value (purple nutsedge; [5]) was 0 and the “Plant response rating, Nutsedge” value (purple nutsedge; [6]) was 0.
